From patent US20230233569A1 (Revolution Medicines, Inc., priority 2020, published 2023)
Where two headings read alike, the source gives them in different places.

Tests used:
KRAS G12C = KRAS G12C (Homo sapiens, UniProt P01116+P62937, G12C); test: Disruption of BRAF RBD interaction with Ras (FRET / MOA assay, with Cyclophilin A); assay type: biochemical
Procedure, shortened: (§1)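 Biochemical TR-FRET disruption assay: nucleotide-loaded K-Ras with Cyclophilin A and a BRAF RBD construct, compound titrated over 10 points from 30 μM (final).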

KRAS G12D = KRAS G12D (Homo sapiens, UniProt P01116+P62937, G12D); test: as above; assay type: biochemical
Chain of KRAS G12D (P01116 1-169 isoform P01116-2 G12D limits assumed): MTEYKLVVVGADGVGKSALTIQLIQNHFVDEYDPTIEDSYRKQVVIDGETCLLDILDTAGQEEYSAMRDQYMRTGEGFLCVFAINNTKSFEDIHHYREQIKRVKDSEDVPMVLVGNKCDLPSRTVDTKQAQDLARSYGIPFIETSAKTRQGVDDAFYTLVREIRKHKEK
Chain of KRAS G12D (P62937 whole entry): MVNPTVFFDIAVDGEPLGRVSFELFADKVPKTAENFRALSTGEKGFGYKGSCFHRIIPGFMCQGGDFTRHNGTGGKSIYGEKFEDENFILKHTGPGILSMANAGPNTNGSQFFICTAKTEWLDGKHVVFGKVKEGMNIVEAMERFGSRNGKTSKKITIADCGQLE
Procedure, shortened: as §1

KRAS G12V = KRAS G12V (Homo sapiens, UniProt P01116+P62937, G12V); test: as above; assay type: biochemical
Chain of KRAS G12V (P01116 1-169 isoform P01116-2 G12V limits assumed): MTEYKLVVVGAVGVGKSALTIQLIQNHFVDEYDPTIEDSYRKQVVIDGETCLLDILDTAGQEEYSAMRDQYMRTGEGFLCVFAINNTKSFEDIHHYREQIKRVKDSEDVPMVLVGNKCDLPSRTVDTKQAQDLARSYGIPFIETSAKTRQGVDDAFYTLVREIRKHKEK
Chain of KRAS G12V (P62937 whole entry): as the sequence (P62937 whole entry) above
Procedure, shortened: as §1

KRAS G12S = KRAS G12S (Homo sapiens, UniProt P01116+P62937, G12S); test: as above; assay type: biochemical
Chain of KRAS G12S (P01116 1-169 isoform P01116-2 G12S limits assumed): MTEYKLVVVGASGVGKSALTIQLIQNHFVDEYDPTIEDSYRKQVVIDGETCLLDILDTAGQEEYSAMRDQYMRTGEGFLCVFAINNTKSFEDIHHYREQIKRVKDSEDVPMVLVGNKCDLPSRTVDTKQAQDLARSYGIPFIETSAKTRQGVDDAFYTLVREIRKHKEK
Chain of KRAS G12S (P62937 whole entry): as the sequence (P62937 whole entry) above
Procedure, shortened: as §1

KRAS WT = KRAS WT (Homo sapiens, UniProt P01116+P62937); test: as above; assay type: biochemical
Chain of KRAS WT (P01116 1-169 isoform P01116-2 limits assumed): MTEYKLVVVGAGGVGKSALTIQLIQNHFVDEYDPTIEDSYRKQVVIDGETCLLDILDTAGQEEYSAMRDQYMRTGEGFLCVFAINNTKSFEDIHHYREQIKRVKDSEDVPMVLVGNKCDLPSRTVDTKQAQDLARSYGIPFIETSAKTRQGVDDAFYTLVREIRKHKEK
Chain of KRAS WT (P62937 whole entry): as the sequence (P62937 whole entry) above
Procedure, shortened: as §1

KRAS G13C = KRAS G13C (Homo sapiens, UniProt P01116+P62937, G13C); test: as above; assay type: biochemical
Chain of KRAS G13C (P01116 1-169 isoform P01116-2 G13C): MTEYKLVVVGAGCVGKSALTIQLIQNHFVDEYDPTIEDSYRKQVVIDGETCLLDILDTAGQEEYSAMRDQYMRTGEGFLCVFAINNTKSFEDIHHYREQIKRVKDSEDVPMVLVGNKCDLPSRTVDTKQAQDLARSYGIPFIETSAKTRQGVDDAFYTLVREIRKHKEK
Chain of KRAS G13C (P62937 whole entry): as the sequence (P62937 whole entry) above
Procedure, shortened: as §1

KRAS G13D = KRAS G13D (Homo sapiens, UniProt P01116+P62937, G13D); test: as above; assay type: biochemical
Chain of KRAS G13D (P01116 1-169 isoform P01116-2 G13D limits assumed): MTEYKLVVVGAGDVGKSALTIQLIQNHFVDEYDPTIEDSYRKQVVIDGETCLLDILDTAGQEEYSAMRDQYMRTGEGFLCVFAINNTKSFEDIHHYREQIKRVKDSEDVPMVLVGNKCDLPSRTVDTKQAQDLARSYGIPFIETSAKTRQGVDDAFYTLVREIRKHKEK
Chain of KRAS G13D (P62937 whole entry): as the sequence (P62937 whole entry) above
Procedure, shortened: as §1

NRAS G12C = NRAS G12C (Homo sapiens, UniProt P01111+P62937, G12C); test: as above; assay type: biochemical
Chain of NRAS G12C (P01111 whole entry G12C): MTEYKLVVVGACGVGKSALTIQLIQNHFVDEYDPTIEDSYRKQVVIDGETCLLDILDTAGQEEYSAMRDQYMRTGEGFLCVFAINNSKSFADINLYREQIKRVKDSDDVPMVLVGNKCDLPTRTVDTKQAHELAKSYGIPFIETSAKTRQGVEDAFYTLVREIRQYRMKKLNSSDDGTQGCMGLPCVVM
Chain of NRAS G12C (P62937 whole entry): as the sequence (P62937 whole entry) above

Capan-1 (K-Ras G12V) = test: CellTiter-Glo cell viability assay, 5-day treatment; assay type: cell-based; settings: Homo sapiens, CAPAN-1, 120 h, 5-day treatment; read-out: Capan-1 Cell Viability assay data (K-Ras G12V, IC50)
Procedure, shortened: (§2)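 Five-day compound treatment of plated cells; luminescent read after ~30 min at RT. Percent-of-DMSO data fit to a four-parameter logistic model.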

NCI-H358 (K-Ras G12C) = test: as above; assay type: cell-based; settings: Homo sapiens, NCI-H358, 120 h, 5-day treatment; read-out: H358 Cell Viability assay data (K-Ras G12C, IC50)
Procedure, shortened: as §2

NRAS Q61K = NRAS Q61K (Homo sapiens, UniProt P01111+P62937, Q61K); test: Disruption of BRAF RBD interaction with Ras (FRET / MOA assay, with Cyclophilin A); assay type: biochemical
Chain of NRAS Q61K (P01111 whole entry Q61K): as the sequence (P01111 whole entry G12C) above, with C12G, Q61K counted along it
Chain of NRAS Q61K (P62937 whole entry): as the sequence (P62937 whole entry) above
Procedure, shortened: (§3)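 IC50 reflects compound-driven Ras:Cyclophilin A ternary complex displacing BRAF RBD, read as lowered TR-FRET ratio relative to DMSO after Eu anti-His (10 nM) and APC anti-GST (50 nM) detection for 1.5 h. Prior incubation 3 h, 25° C, with 12.5 nM GMPPNP-loaded Ras, 50 nM BRAF RBD, 25 μM Cyclophilin A; top compound 30 μM.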

NRAS Q61R = NRAS Q61R (Homo sapiens, UniProt P01111+P62937, Q61R); test: as above; assay type: biochemical
Chain of NRAS Q61R (P01111 whole entry Q61R): as the sequence (P01111 whole entry G12C) above, with C12G, Q61R counted along it
Chain of NRAS Q61R (P62937 whole entry): as the sequence (P62937 whole entry) above
Procedure, shortened: as §3

NRAS WT = NRAS WT (Homo sapiens, UniProt P01111+P62937); test: as above; assay type: biochemical
Chain of NRAS WT (P01111 whole entry): as the sequence (P01111 whole entry G12C) above, with C12G counted along it
Chain of NRAS WT (P62937 whole entry): as the sequence (P62937 whole entry) above
Procedure, shortened: as §3

KRAS Q61H = KRAS Q61H (Homo sapiens, UniProt P01116+P62937, Q61H); test: as above; assay type: biochemical
Chain of KRAS Q61H (P01116 1-169 isoform P01116-2 Q61H limits assumed): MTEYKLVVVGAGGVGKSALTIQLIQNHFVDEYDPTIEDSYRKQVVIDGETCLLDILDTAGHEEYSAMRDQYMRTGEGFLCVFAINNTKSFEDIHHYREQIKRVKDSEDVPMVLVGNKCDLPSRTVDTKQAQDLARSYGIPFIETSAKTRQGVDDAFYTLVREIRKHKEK
Chain of KRAS Q61H (P62937 whole entry): as the sequence (P62937 whole entry) above
Procedure, shortened: as §3

[1] = read-out: KRAS G12C FRET data, IC50
[2] = read-out: KRAS G12D FRET data, IC50
[3] = KRAS G12V, read-out: KRAS G12V FRET data IC50
[4] = read-out: KRAS G12S FRET data, IC50
[5] = KRAS WT, read-out: KRAS WT FRET data IC50
[6] = read-out: KRAS G13C FRET data, IC50
[7] = KRAS G13D, read-out: KRAS G13D FRET data IC50
[8] = NRAS G12C, read-out: NRAS G12C FRET data IC50
[9] = NRAS Q61K, read-out: NRAS Q61K FRET data IC50
[10] = NRAS Q61R, read-out: NRAS Q61R FRET data IC50
[11] = NRAS WT, read-out: NRAS WT FRET data IC50
[12] = KRAS Q61H, read-out: KRAS Q61H FRET data IC50

Chain of KRAS G12C (P01116 1-169 isoform P01116-2 G12C): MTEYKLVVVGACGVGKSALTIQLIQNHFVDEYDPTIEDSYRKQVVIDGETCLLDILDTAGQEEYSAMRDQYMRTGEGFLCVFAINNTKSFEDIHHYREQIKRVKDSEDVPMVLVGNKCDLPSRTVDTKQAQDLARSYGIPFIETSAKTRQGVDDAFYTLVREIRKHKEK
Chain of KRAS G12C (P62937 whole entry): as the sequence (P62937 whole entry) above

SMILES | IC50 (Capan-1 (K-Ras G12V)) | IC50 (NCI-H358 (K-Ras G12C)) | IC50 (KRAS G12C; [1]) | IC50 (KRAS G12D; [2]) | IC50 (KRAS G12V; [3]) | IC50 (KRAS G12S; [4]) | IC50 (KRAS WT; [5]) | IC50 (KRAS G13C; [6]) | IC50 (KRAS G13D; [7]) | IC50 (NRAS G12C; [8]) | IC50 (NRAS Q61K; [9]) | IC50 (NRAS Q61R; [10]) | IC50 (NRAS WT; [11]) | IC50 (KRAS Q61H; [12]) | other results
CCn1c(-c2cccnc2[C@H](C)OC)c2c3cc(ccc31)-c1csc(n1)C[C@H](NC(=O)[C@H](C(C)C)N(C)C(=O)OC)C(=O)N1CCC[C@H](N1)C(=O)OCC(C)(C)C2 [Example A138] | 10 to 100 nM | 10 to 100 nM |  |  |  |  |  |  |  |  |  |  |  |  | IC50 (KRAS G12C; KRAS G12C FRET data, IC50): 100 to 1000 nM; IC50 (KRAS G12D; KRAS G12D FRET data, IC50): 1000 to 10000 nM; IC50 (KRAS G12V; KRAS G12V FRET data IC50, KRAS G12V): 100 to 1000 nM; IC50 (KRAS G12S; KRAS G12S FRET data, IC50): 1000 to 10000 nM; IC50 (KRAS WT; KRAS WT FRET data IC50, KRAS WT): 100 to 1000 nM; IC50 (KRAS G13C; KRAS G13C FRET data, IC50): 100 to 1000 nM; IC50 (KRAS G13D; KRAS G13D FRET data IC50, KRAS G13D): 1000 to 10000 nM; IC50 (NRAS G12C; NRAS G12C FRET data IC50, NRAS G12C): 100 to 1000 nM; IC50 (NRAS Q61K; NRAS Q61K FRET data IC50, NRAS Q61K): 100 to 1000 nM; IC50 (NRAS Q61R; NRAS Q61R FRET data IC50, NRAS Q61R): 100 to 1000 nM; IC50 (NRAS WT; NRAS WT FRET data IC50, NRAS WT): 100 to 1000 nM; IC50 (KRAS Q61H; KRAS Q61H FRET data IC50, KRAS Q61H): 100 to 1000 nM
CCn1c(-c2cccnc2[C@H](C)OC)c2c3cc(ccc31)-c1csc(n1)C[C@H](NC(=O)[C@H](C(C)C)N(C)C(=O)N(C)[C@@H]1CCCN(C)C1)C(=O)N1CCC[C@H](N1)C(=O)OCC(C)(C)C2 [Example A587] | 10 to 100 nM | 10 to 100 nM | 100 to 1000 nM | 100 to 1000 nM | 1000 to 10000 nM | 100 to 1000 nM | 100 to 1000 nM | 100 to 1000 nM | 100 to 1000 nM | 100 to 1000 nM | 100 to 1000 nM | 100 to 1000 nM | 100 to 1000 nM | 100 to 1000 nM | 
CCn1c(-c2cccnc2[C@H](C)OC)c2c3cc(ccc31)-c1csc(n1)C[C@H](NC(=O)[C@H](C(C)C)N(C)C(=O)N1CC(N(C)C3CC3)C1)C(=O)N1CCC[C@H](N1)C(=O)OCC(C)(C)C2 (atropisomer, axis not shown) [Example A285] | 10 to 100 nM | 10 to 100 nM | 10 to 100 nM | 100 to 1000 nM | 100 to 1000 nM | 100 to 1000 nM | 100 to 1000 nM | 100 to 1000 nM | 100 to 1000 nM | 10 to 100 nM | 10 to 100 nM | 100 to 1000 nM | 100 to 1000 nM | 10 to 100 nM | 
CCn1c(-c2cccnc2[C@H](C)OC)c2c3cc(ccc31)-c1csc(n1)C[C@H](NC(=O)[C@H](C1CCCC1)N(C)C(=O)N1CCN(C)CC1)C(=O)N1CCC[C@H](N1)C(=O)OCC(C)(C)C2 [Example A525] | 10 to 100 nM | 10 to 100 nM | 100 to 1000 nM | 1000 to 10000 nM | 100 to 1000 nM | 100 to 1000 nM | 100 to 1000 nM | 100 to 1000 nM | 100 to 1000 nM | 100 to 1000 nM | 100 to 1000 nM | 100 to 1000 nM | 100 to 1000 nM | 100 to 1000 nM | 
CCn1c(-c2cc(N3CCN(C)CC3)cnc2[C@H](C)OC)c2c3cc(ccc31)-c1cc(O)cc(c1)C[C@H](NC(=O)[C@H](C(C)C)N(C)C(=O)[C@@H]1OCC[C@@H]1c1ccccc1)C(=O)N1CCC[C@H](N1)C(=O)OCC(C)(C)C2 (atropisomer, axis not shown) [Example A594] | < 10 nM | < 10 nM | < 10 nM | 10 to 100 nM | 10 to 100 nM | < 10 nM | < 10 nM | < 10 nM | 10 to 100 nM | < 10 nM | 10 to 100 nM | < 10 nM | < 10 nM | < 10 nM | 
CCn1c(-c2cccnc2[C@H](C)OC)c2c3cc(ccc31)-c1cc(O)cc(c1)C[C@H](NC(=O)[C@H](C(C)C)N(C)C(=O)[C@@H]1CCN[C@@H]1c1ccccc1)C(=O)N1CCC[C@H](N1)C(=O)OCC(C)(C)C2 (atropisomer, axis not shown) [Example A605] | 100 to 1000 nM | 10 to 100 nM | 10 to 100 nM | 10 to 100 nM | 10 to 100 nM | 10 to 100 nM | 10 to 100 nM | 10 to 100 nM | 10 to 100 nM | 10 to 100 nM | 100 to 1000 nM | 100 to 1000 nM | 10 to 100 nM | < 10 nM | 
CCn1c(-c2cc(C3CCN(C)CC3)cnc2[C@H](C)OC)c2c3cc(ccc31)-c1csc(n1)C[C@H](NC(=O)[C@H](C(C)C)N(C)C(=O)N(C)C)C(=O)N1CCC[C@H](N1)C(=O)OCC(C)(C)C2 (atropisomer, axis not shown) [Example A484] | < 10 nM | < 10 nM | 10 to 100 nM | 100 to 1000 nM | 100 to 1000 nM | 100 to 1000 nM | 100 to 1000 nM | 100 to 1000 nM | 100 to 1000 nM | 10 to 100 nM | 10 to 100 nM | 100 to 1000 nM | 10 to 100 nM | 10 to 100 nM | 
CCn1c(-c2cccnc2[C@H](C)OC)c2c3cc(ccc31)-c1csc(n1)C[C@H](NC(=O)[C@H](C(C)C)N1CCN(C)C1=O)C(=O)N1CCC[C@H](N1)C(=O)OCC(C)(C)C2 [Example A389] | 10 to 100 nM | 10 to 100 nM | 100 to 1000 nM | 1000 to 10000 nM | 1000 to 10000 nM | 1000 to 10000 nM | 1000 to 10000 nM | 1000 to 10000 nM | 1000 to 10000 nM | 100 to 1000 nM | 100 to 1000 nM | 1000 to 10000 nM | 1000 to 10000 nM | 100 to 1000 nM | 
CCn1c(-c2cccnc2[C@H](C)OC)c2c3cc(ccc31)-c1cc(O)cc(c1)C[C@H](NC(=O)[C@H](C(C)C)N(C)C(=O)[C@@H]1OCC[C@@H]1c1cccnc1)C(=O)N1CCC[C@H](N1)C(=O)OCC(C)(C)C2 (atropisomer, axis not shown) [Example A546] | 10 to 100 nM | < 10 nM | < 10 nM | 10 to 100 nM | 10 to 100 nM | 10 to 100 nM | 10 to 100 nM | 10 to 100 nM | 10 to 100 nM | 10 to 100 nM | 10 to 100 nM | 10 to 100 nM | 10 to 100 nM | < 10 nM | 
CCn1c(-c2cccnc2[C@H](C)OC)c2c3cc(ccc31)-c1csc(n1)C[C@H](NC(=O)[C@H](C(C)C)N(C)C(=O)N(C)C1(COC)COC1)C(=O)N1CCC[C@H](N1)C(=O)OCC(C)(C)C2 [Example A455] | 100 to 1000 nM | 100 to 1000 nM | 100 to 1000 nM | 1000 to 10000 nM | 1000 to 10000 nM | 100 to 1000 nM | 100 to 1000 nM | 1000 to 10000 nM | 1000 to 10000 nM | 100 to 1000 nM | 100 to 1000 nM | 100 to 1000 nM | 100 to 1000 nM | 100 to 1000 nM | 
CCn1c(-c2cccnc2[C@H](C)OC)c2c3cc(ccc31)-c1csc(n1)C[C@H](NC(=O)[C@H](C(C)C)N(C)C(=O)N1CC([C@@H](C)NC)C1)C(=O)N1CCC[C@H](N1)C(=O)OCC(C)(C)C2 (atropisomer, axis not shown) [Example A488] | 100 to 1000 nM | 10 to 100 nM | 10 to 100 nM | 100 to 1000 nM | 100 to 1000 nM | 100 to 1000 nM | 100 to 1000 nM | 100 to 1000 nM | 100 to 1000 nM | 10 to 100 nM | 10 to 100 nM | 100 to 1000 nM | 100 to 1000 nM | 10 to 100 nM | 
